In the assay the test system is wheat powdery mildew (Erysiphe graminis). As to the kind of experiment: Reference Example: efficacy reinforcement by adjuvant, control of wheat powdery mildew on potted wheat. It counts as in vivo. Particulars: pyribencarb water-dispersible granules 30 g/ha, no adjuvant added (0 ppm); day 7 after inoculation. As for the experimental part:
Pyribencarb (40 parts), sodium lignin sulfonate (5 parts), polyoxyethylene alkyl aryl ether (1 part), calcium carbonate (54 parts) and water (10 parts) were mixed, kneaded, extruded, and granulated, and the resultant granules were dried in a fluidized bed dryer to obtain water-dispersible granules. Thus obtained water-dispersible granules of pyribencarb were adjusted so as to have a predetermined concentration, and the adjuvant shown in the following Table 2 was added to the diluted solution to a concentration of 100 ppm to prepare a spray solution. In addition, a spray solution containing an adjuvant at a concentration of 100 ppm without containing water-dispersible granules of pyribencarb were separately prepared. Ten wheat seeds (variety: Norin No. 61) were sowed in a plastic cup having a diameter of 5.5 cm, and after grown for 7 days in a greenhouse, 25 ml/m^2 (30 g of pyribencarb per 1 ha) was sprayed onto the wheat at 1.5 to 2 leaf stage. After air-drying, conidia of wheat powdery mildew (Erysiphe graminis) were sprayed and inoculated, and the plant was placed in a greenhouse. On day 7 after inoculation, the disease onset area of the first leaves in the pot in the spray solution-treated region and the untreated region were indexed and investigated according to the criteria in Table 1 below. […]

The record followed here is patent US10701939B2, “Aqueous suspension agrochemical composition” (KUMIAI CHEMICAL INDUSTRY CO., LTD., priority 2015, dated 2020).

The structures appear in SMILES notation.

For `COC(=O)NCc1cc(/C(C)=N/OCc2cccc(C)n2)ccc1Cl` [pyribencarb, methyl={2-chloro-5-[(E)-1-(6-methyl-2-pyridylmethoxyimino)ethyl]benzyl}carbamate], the “Control effect on wheat powdery mildew (control value)” value came out at 33.2%.
